Experimental data as given in patent US11260116B2, “Vaccine compositions comprising an amphipathic compound, a neoantigen and a hydrophobic carrier, and methods of use thereof” (IMMUNOVACCINE TECHNOLOGIES INC., priority 2016, dated 2022).
Read-outs that look alike come from different tables or passages of the source.

Key:
[1] = cited from earlier work
mutated peptide = conditions: aqueous formulation, mice, cited from earlier work
Mut30 neoantigen = assay: IFN-gamma ELISPOT of splenocytes from vaccinated mice; format: in vivo; conditions: Example 3, FIG. 2; C57BL/6 VAF/Elite Crl mice; DNA- or RNA-based poly I:C; single immunization; eight days after vaccination
Description: Pathogen free, C57BL/6 VAF/Elite® Crl mice, 6-8 weeks of age, were purchased from Charles River Laboratories (St. Constant, PQ) and housed according to institutional guidelines with water and food ad libitum under filter controlled air circulation.
Eight days after vaccination, mice were terminated and spleens collected. […] After 18 hours of culture, plates were developed and the number of spot forming units (SFU) counted using Immunospot Reader (C.T.L.). […] Statistical analysis was performed by 2-way ANOVA with Bonferroni post test comparing group responses to Mut30 peptide: *p<0.05, ***p<0.001.
Oil-based depot vaccine formulations were prepared with Mut30 antigen at a higher (100 micrograms) and lower (50 micrograms) dose.
To prepare the oil-based formulations, the Mut30 peptide (low or high dose amount), polyI:C adjuvant (DNA or RNA) and T-helper epitope (A16L peptide) were first reconstituted in an acetate buffer (0.1M, pH 9.5) with DOPC and cholesterol (Lipoid, Germany). The vaccine components were then lyophilized to form a dry cake. Just prior to injection, the dry cake was reconstituted in ISA51 VG oil (SEPPIC, France).
Mice in group 1 (n=6) were vaccinated with 100 microliters of an oil-based depot vaccine containing 100 micrograms of Mut30 neoantigen, 50 micrograms of A16L peptide, 40 micrograms of DNA-based poly I:C, 12 milligrams of DOPC and 1.2 milligrams of cholesterol. […]

| Compound | bioavailability by route of administration ([1]; intravenous infusion vs parenteral and oral) | Total systemic clearance of CPA and its metabolites ([1]; patients) | elimination half-life on repeated administration ([1]; repeated administration) | peak plasma levels of the parent ([1]; vary between patients) | immune reaction to Mut30 reported by Castle 2012 (mutated peptide) | immune reaction to Mut30 reported by Castle 2012 (mutated peptide; listed as Mut30 neoantigen) | IFN-gamma ELISPOT immune response to Mut30, high (100 micrograms) vs low (50 micrograms) dose (Mut30 neoantigen) |
| --- | --- | --- | --- | --- | --- | --- | --- |
| O=P1(N(CCCl)CCCl)NCCCO1 (stereo not shown) [Cyclophosphamide, N,N-bis(2-chloroethyl)-1,3,2-oxazaphosphinan-2-amine 2-oxide] | little difference in bioavailability | 5 to 9 h | shorten elimination half-life | 3 to 11 h | – | – | – |
| Mut30: Kif18b neoantigen (K739N) from B16F10 melanoma, PSKPSFQEFVDWENVSPELNSTDQPFL (SEQ ID NO: 2), from Castle 2012 (Mut30 Neoantigen) | – | – | – | – | strong immune reaction preferentially against the mutated peptide | strong mutation-specific immune responses | No statistically significant difference |
